Measurements as given in patent US9623028B2, “Methods of treating a cancer using substituted pyrrolopyrimidine compounds, compositions thereof” (Signal Pharmaceuticals, LLC, priority 2014, dated 2017).

Columns and labels:
CLK1 = CLK1 (Homo sapiens (Human), UniProt P49759); experiment: biochemical; conditions: read-out: CLK1 (% Inh.), % inhibition at 3 μM
CLK2 = CLK2 (Homo sapiens (Human), UniProt P49760); experiment: biochemical; conditions: read-out: CLK2 (% Inh.), % inhibition at 3 μM
CLK2, sequence (P49760 whole entry): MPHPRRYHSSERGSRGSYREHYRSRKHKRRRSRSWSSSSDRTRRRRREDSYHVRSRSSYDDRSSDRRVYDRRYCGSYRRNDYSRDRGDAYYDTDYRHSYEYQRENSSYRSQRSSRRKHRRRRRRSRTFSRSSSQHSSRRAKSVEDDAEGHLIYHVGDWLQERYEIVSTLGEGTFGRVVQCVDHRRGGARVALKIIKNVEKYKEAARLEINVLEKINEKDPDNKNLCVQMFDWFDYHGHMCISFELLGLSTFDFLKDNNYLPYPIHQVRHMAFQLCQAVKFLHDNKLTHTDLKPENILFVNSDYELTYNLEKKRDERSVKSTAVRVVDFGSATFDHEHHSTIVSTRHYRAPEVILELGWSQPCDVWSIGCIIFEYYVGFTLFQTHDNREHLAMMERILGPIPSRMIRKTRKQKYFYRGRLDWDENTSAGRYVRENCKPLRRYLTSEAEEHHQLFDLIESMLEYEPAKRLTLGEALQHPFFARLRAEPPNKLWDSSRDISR

CLK1, sequence (P49759 whole entry): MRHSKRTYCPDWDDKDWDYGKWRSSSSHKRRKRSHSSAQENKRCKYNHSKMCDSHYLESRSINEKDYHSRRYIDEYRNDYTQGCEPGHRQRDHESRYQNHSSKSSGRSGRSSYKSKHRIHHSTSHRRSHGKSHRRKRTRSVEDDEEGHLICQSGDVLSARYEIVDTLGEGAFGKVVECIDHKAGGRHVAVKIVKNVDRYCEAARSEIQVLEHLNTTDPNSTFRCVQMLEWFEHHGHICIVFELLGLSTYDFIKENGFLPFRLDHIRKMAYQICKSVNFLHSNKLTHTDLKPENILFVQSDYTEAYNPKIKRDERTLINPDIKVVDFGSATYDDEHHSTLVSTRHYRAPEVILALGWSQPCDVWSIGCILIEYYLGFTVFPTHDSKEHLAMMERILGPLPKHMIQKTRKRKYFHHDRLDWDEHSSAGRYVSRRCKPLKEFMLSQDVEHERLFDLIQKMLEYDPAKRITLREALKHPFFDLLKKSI

inhibition at 3 µM (CLK1) [%]	inhibition at 3 µM (CLK2) [%]	SMILES
95	94	CNC(=O)c1ccc(Nc2nc(OC3CCCC3)c3c(-c4ccc(O)cc4)c[nH]c3n2)c(C(C)C)c1 [Compound 11, 4-(4-(cyclopentyloxy)-5-(4-hydroxyphenyl)-7H-pyrrolo[2,3-d]pyrimidin-2-ylamino)-3-isopropyl-N-methylbenzamide]
92	90	CNC(=O)c1ccc(Nc2nc(NC3CCCC3)c3c(-c4ccc(O)cc4)c[nH]c3n2)c(OC)c1 [Compound 16, 4-(4-(cyclopentylamino)-5-(4-hydroxyphenyl)-7H-pyrrolo[2,3-d]pyrimidin-2-ylamino)-3-methoxy-N-methylbenzamide]
97	98	CNC(=O)c1ccc(Nc2nc(OC3CCOCC3)c3c(-c4ccc(O)cc4)c[nH]c3n2)c(OC)c1 [Compound 17, 4-(5-(4-hydroxyphenyl)-4-(tetrahydro-2H-pyran-4-yloxy)-7H-pyrrolo[2,3-d]pyrimidin-2-ylamino)-3-methoxy-N-methylbenzamide]
96	103	CNC(=O)c1ccc(Nc2nc(OC3CCCC3)c3c(-c4cccnc4)c[nH]c3n2)c(OC)c1 [Compound 58, 4-(4-(cyclopentyloxy)-5-(pyridin-3-yl)-7H-pyrrolo[2,3-d]pyrimidin-2-ylamino)-3-methoxy-N-methylbenzamide]
68	99	CNC(=O)c1ccc(Nc2nc(OC3CCCC3)c3c(-c4ccc(OC)c(OC)c4)c[nH]c3n2)c(OC)c1 [Compound 64, 4-(4-(cyclopentyloxy)-5-(3,4-dimethoxyphenyl)-7H-pyrrolo[2,3-d]pyrimidin-2-ylamino)-3-methoxy-N-methylbenzamide]
101	100	COc1nc(Nc2ccc(C(=O)N(C)C)cc2C)nc2[nH]cc(-c3ccncc3)c12 [Compound 89, 4-(4-methoxy-5-(pyridin-4-yl)-7H-pyrrolo[2,3-d]pyrimidin-2-ylamino)-N,N,3-trimethylbenzamide]
103	104	Cc1nc2ccc(-c3c[nH]c4nc(Nc5ccc(C(=O)N(C)C)cc5C)nc(O[C@H]5CCOC5)c34)cc2o1 [Compound 98, (S)-N,N,3-trimethyl-4-(5-(2-methylbenzo[d]oxazol-6-yl)-4-(tetrahydrofuran-3-yloxy)-7H-pyrrolo[2,3-d]pyrimidin-2-ylamino)benzamide]
98	98	CNC(=O)c1ccc(Nc2nc(OC)c3c(-c4ccc(OC)nc4)c[nH]c3n2)c(OC)c1 [Compound 118, 3-methoxy-4-(4-methoxy-5-(6-methoxypyridin-3-yl)-7H-pyrrolo[2,3-d]pyrimidin-2-ylamino)-N-methylbenzamide]
104	101	CNC(=O)c1ccc(Nc2nc(O[C@H]3CCOC3)c3c(-c4ccc5nc(C)oc5c4)c[nH]c3n2)c(C)c1 [Compound 133, (S)-N,3-dimethyl-4-(5-(2-methylbenzo[d]oxazol-6-yl)-4-(tetrahydrofuran-3-yloxy)-7H-pyrrolo[2,3-d]pyrimidin-2-ylamino)benzamide]
104	99	CNC(=O)c1ccc(Nc2nc(OCCOC)c3c(-c4ccc5nc(C)oc5c4)c[nH]c3n2)c(OC)c1 [Compound 139, 3-methoxy-4-(4-(2-methoxyethoxy)-5-(2-methylbenzo[d]oxazol-6-yl)-7H-pyrrolo[2,3-d]pyrimidin-2-ylamino)-N-methylbenzamide]
97	103	Cc1cc(C(=O)N(C)C)ccc1Nc1nc(OC2CCOCC2)c2c(-c3ccnc(C#N)c3)c[nH]c2n1 [Compound 140, 4-(5-(2-cyanopyridin-4-yl)-4-(tetrahydro-2H-pyran-4-yloxy)-7H-pyrrolo[2,3-d]pyrimidin-2-ylamino)-N,N,3-trimethylbenzamide]
99	106	CNC(=O)c1ccc(Nc2nc(OC3CCOCC3)c3c(-c4ccc5nc(C)n(C)c5c4)c[nH]c3n2)c(OC)c1 [Compound 148, 4-(5-(1,2-dimethyl-1H-benzo[d]imidazol-6-yl)-4-(tetrahydro-2H-pyran-4-yloxy)-7H-pyrrolo[2,3-d]pyrimidin-2-ylamino)-3-methoxy-N-methylbenzamide]
99	111	CNC(=O)c1ccc(Nc2nc(OC3CCC(C)(O)CC3)c3c(-c4ccc5nc(C)oc5c4)c[nH]c3n2)c(C)c1 (stereo not drawn) [Compound 150, 4-(4-((1r,4r)-4-hydroxy-4-methylcyclohexyloxy)-5-(2-methylbenzo[d]oxazol-6-yl)-7H-pyrrolo[2,3-d]pyrimidin-2-ylamino)-N,3-dimethylbenzamide]
95	105	COc1nc(Nc2ccc(C(=O)N(C)C)cc2Cl)nc2[nH]cc(-c3ccncc3)c12 [Compound 157, 3-chloro-4-(4-methoxy-5-(pyridin-4-yl)-7H-pyrrolo[2,3-d]pyrimidin-2-ylamino)-N,N-dimethylbenzamide]
98	108	COc1cc(C(=O)NCCO)ccc1Nc1nc(OC(C)C)c2c(-c3ccc4nc(C)oc4c3)c[nH]c2n1 [Compound 160, N-(2-hydroxyethyl)-4-(4-isopropoxy-5-(2-methylbenzo[d]oxazol-6-yl)-7H-pyrrolo[2,3-d]pyrimidin-2-ylamino)-3-methoxybenzamide]
100	106	CCOc1ccc(-c2c[nH]c3nc(Nc4ccc(C(=O)NC)cc4C)nc(O[C@H]4CCOC4)c23)cn1 [Compound 162, (S)-4-(5-(6-ethoxypyridin-3-yl)-4-(tetrahydrofuran-3-yloxy)-7H-pyrrolo[2,3-d]pyrimidin-2-ylamino)-N,3-dimethylbenzamide]
100	102	CNC(=O)c1ccc(Nc2nc(OC3CCOCC3)c3c(-c4ccn(C)n4)c[nH]c3n2)c(OC)c1 [Compound 163, 3-methoxy-N-methyl-4-(5-(1-methyl-1H-pyrazol-3-yl)-4-(tetrahydro-2H-pyran-4-yloxy)-7H-pyrrolo[2,3-d]pyrimidin-2-ylamino)benzamide]
100	105	CNC(=O)c1ccc(Nc2nc(O[C@H]3CCOC3)c3c(-c4ccc5nc(C)oc5c4)c[nH]c3n2)c(OC)c1 [Compound 169, (S)-3-methoxy-N-methyl-4-(5-(2-methylbenzo[d]oxazol-6-yl)-4-(tetrahydrofuran-3-yloxy)-7H-pyrrolo[2,3-d]pyrimidin-2-ylamino)benzamide]
101	98	CNC(=O)c1ccc(Nc2nc(OC3CCOCC3)c3c(-c4cnn(C)c4)c[nH]c3n2)c(OC)c1 [Compound 184, 3-methoxy-N-methyl-4-(5-(1-methyl-1H-pyrazol-4-yl)-4-(tetrahydro-2H-pyran-4-yloxy)-7H-pyrrolo[2,3-d]pyrimidin-2-ylamino)benzamide]
98	106	CNC(=O)c1ccc(Nc2nc(OC(C)C)c3c(-c4ccnc(OC)c4)c[nH]c3n2)c(OC)c1 [Compound 185, 4-(4-isopropoxy-5-(2-methoxypyridin-4-yl)-7H-pyrrolo[2,3-d]pyrimidin-2-ylamino)-3-methoxy-N-methylbenzamide]
100	99	CNC(=O)c1ccc(Nc2nc(OC(C)C)c3c(-c4ccc(-c5ncc[nH]5)cc4)c[nH]c3n2)c(OC)c1 [Compound 193, 4-(5-(4-(1H-imidazol-2-yl)phenyl)-4-isopropoxy-7H-pyrrolo[2,3-d]pyrimidin-2-ylamino)-3-methoxy-N-methylbenzamide]
100	103	CNC(=O)c1ccc(Nc2nc(OC3CCOCC3)c3c(-c4ccc(-c5nc(C)c(C)[nH]5)cc4)c[nH]c3n2)c(OC)c1 [Compound 197, 4-(5-(4-(4,5-dimethyl-1H-imidazol-2-yl)phenyl)-4-(tetrahydro-2H-pyran-4-yloxy)-7H-pyrrolo[2,3-d]pyrimidin-2-ylamino)-3-methoxy-N-methylbenzamide]
100	103	CNC(=O)c1ccc(Nc2nc(OC(C)C)c3c(-c4ccnc(C)c4)c[nH]c3n2)c(OC)c1 [Compound 201, 4-(4-isopropoxy-5-(2-methylpyridin-4-yl)-7H-pyrrolo[2,3-d]pyrimidin-2-ylamino)-3-methoxy-N-methylbenzamide]
99	99	CNC(=O)c1ccc(Nc2nc(NC(C)C)c3c(-c4ccc5nc(C)oc5c4)c[nH]c3n2)c(OC)c1 [Compound 202, 4-(4-(isopropylamino)-5-(2-methylbenzo[d]oxazol-6-yl)-7H-pyrrolo[2,3-d]pyrimidin-2-ylamino)-3-methoxy-N-methylbenzamide]

SMILES	inhibition at 3 µM (CLK1) [%]	inhibition at 3 µM (CLK2) [%]
CNC(=O)c1ccc(Nc2nc(OC3CCC3)c3c(-c4ccc5nc(C)oc5c4)c[nH]c3n2)c(OC)c1 [Compound 198, 4-(4-cyclobutoxy-5-(2-methylbenzo[d]oxazol-6-yl)-7H-pyrrolo[2,3-d]pyrimidin-2-ylamino)-3-methoxy-N-methylbenzamide]	93	100
CC[C@@H](C)Oc1nc(Nc2ccc(C(=O)NC)cc2OC)nc2[nH]cc(-c3ccc4nc(C)oc4c3)c12 [Compound 203, (R)-4-(4-sec-butoxy-5-(2-methylbenzo[d]oxazol-6-yl)-7H-pyrrolo[2,3-d]pyrimidin-2-ylamino)-3-methoxy-N-methylbenzamide]	98	99
CC[C@H](C)Oc1nc(Nc2ccc(C(=O)NC)cc2OC)nc2[nH]cc(-c3ccc4nc(C)oc4c3)c12 [Compound 204, (S)-4-(4-sec-butoxy-5-(2-methylbenzo[d]oxazol-6-yl)-7H-pyrrolo[2,3-d]pyrimidin-2-ylamino)-3-methoxy-N-methylbenzamide]	98	99
